Experiments:
thrombin [1] = target: T1, thrombin (Homo sapiens, UniProt P00734); experiment: inhibition of thrombin with chromogenic substrate Chromozym TH; format: biochemical; settings: starting material of Example 1
Experimental: The biological activity is determined from the inhibition of thrombin, whose enzymatic activity is in turn determined using the chromogenic substrate Chromozym TH (a product of Boehringer, Mannheim, West Germany, for thrombin and hirudin determination) in accordance with known directions supplied with the test preparation.

[2] = unusually high doses given to dogs; cited from earlier work
thrombin [3] = target: T1, thrombin; settings: thrombin inhibitor; cited from earlier work
[4] = tested on: other proteinases of the clotting cascade; settings: completely specific for thrombin; cited from earlier work
[5] = tested on: experimental thrombosis (stasis or thrombin injection), endotoxin shock, DIC; settings: cited from earlier work

Substance: Hirudin
- activity (inhibition of thrombin) (thrombin [1]): 630 IU/mg
- effect on heart rate, respiration, blood pressure, thrombocytes, fibrinogen and haemoglobin [2]: No effect
- Ki (thrombin [3]): ~0.06 nM
- inhibition of other proteinases of the clotting cascade [4]: does not inhibit
- efficacy in experimental thrombosis, endotoxin shock and DIC ([5]; rats, pigs, dogs, thrombosis induced by stasis or thrombin injection): proved effective
- direct comparison with heparin ([5]; whenever direct comparison tests were carried out): superior to heparin

— patent US4745177A, “Desulfatohirudins, the preparation thereof and pharmaceutical compositions containing them” (Ciba-Geigy Corporation, priority 1983, dated 1988)
